Experimental data reported in patent US20040180417A1, “Secretase/sheddase with asp-ase activity on the beta-site app-cleaving enzyme (bace, asp2, memepsin2)” (priority 2000, published 2004).
Starred links: 1 amine or outer side, 2 acyl side, 3 side chain; linkers in the order of their positions; H or OH if unused. Non-standard residues stand in square brackets, D forms with d. Residues, ends and D or L forms follow the SMILES beside them. *: point of attachment. X1 = CC(N[*:1])C(=O)C(F)(F)C(=O)[*:2]; Cbz = O=C(OCc1ccccc1)*; Boc = CC(C)(C)OC(=O)*; CH2F = FC*

Columns and labels:
BACE secretase/sheddase = BACE secretase/sheddase activity (BACE C-terminal fragments) in Neuro 2a cells; assay type: cell-based
Procedure: (§1) FIG. 8: [A] Neuro 2a APPSW cells were transiently transfected with cDNA for [BACEF]FG. Cells were labeled with ^35S-Met for 3 hrs in the absence (−, DMSO control) or presence of 100 uM of a substrate based γ-secretase inhibitor (+γ-sec I, DFK-167 Enzyme Systems products). Cell lysates were immunoprecipitaed with FG antibodies, reduced and analyzed by SDS-PAGE on 8% tricine gels. Cell lysates [B] and media [C] were immunoprecipited with antibody APP711-03 and analyzed by SDS-PAGE on 8% tricine gels. [D] Media was immunoprecipited with the 1-40 Aβ antibody and analyzed on a 14% tricine gel. The exposure time was 3 days.
Transfections and biosynthetic analyses—All transfections were done on 2−4×10^5 HK293 cells using Effectene (Qiagen) and a total of 1-1.5 μg of BACE contruct cDNAs subcloned into the vector pIRES2-EGFP. Two days post-transfection the cells were washed and then pulse-incubated for various times with either 200 μCi/ml of [^35S]Met; 400 μCi/ml Na2[^35SO4], [^3H]Leu, [^3H]Arg, [^3H]Ser; or 1 mCi/ml [^3H]palmitate EN) (20). Pulse-chase experiments with [^35S]Met were carried out as previously described (21). Cells were lysed in immunoprecipitation buffer [150 mM NaCl, 50 mM Tris-HCl pH 6.8, 0.5% NP40, 0.5% sodium deoxycholate and a protease inhibitor cocktail (Roche Diagnostics). The lysates and media were then prepared for immunoprecipitations as reported (22). The monoclonal antibodies used were directed against either the FL (Flag-M2; 1:500 dilution; Stratagene) or V5 (1:1000 dilution; Invitrogen) epitopes. Rabbit polyclonal antisera included those directed against aa 1-16 of human Aβ (produced in laboratory, dilution 1:200); anti-β-amyloid, recognizing mostly the C-terminal part of Aβ40 (A8326, dilution 1:200, Sigma); and FCA 18, recognizing all peptides starting with the Asp at the N-terminus of Aβ (23). Immunoprecipitates were resolved on SDS-PAGE (either 8% or 14% tricine gels) and autoradiographed (21). All PC inhibitor proteins were cloned in pcDNA3 (Invitrogen), including those of α1-PDX (8); the preprosegments of furin, PC7 (24), PC5 (25), SKI-1 (26,27); and wild type (α2-M) and furin-site mutated (α2-MG-F) α2-macroglubulin (28).
C-terminal processing of BACE—In order to further characterize the nature of apparent C-terminal cleaved BACE fragments (FIG. 5C), the analysis of [BACEF]FG fragments immunoprecipitated with antiserum to Flag from HK293 cells were repeated. In addition to the 6 kDa fragment noted in FIG. 5C, fragments of 34, 15, and 11 kDa are apparent (FIG. 7). […] In addition, the intensity of the 11 and 6 kDa bands appear to diminish. It was expected that some of these BACE fragments would be disulfide linked, since it is known that the six Cys residues in the ectodomain form three intramolecular disulfide linkages (Cys^216-Cys^420, Cys^278-Cys^443, Cys^330-Cys^380) (41). The 34, 15, 11 and 6 kDa BACE fragments are also apparent when [BACEF]FG is expressed in Neuro 2a cells (FIG. 8). The relative levels of the 11 kDa fragment compared to the other cleaved fragments of BACE appear lower in Neuro 2a compared to HK293 cells. In any case, the sites of ectodomain cleavage are apparently the same in the two cell types. […] The significance of an apparent reduction in the level of the 6 kDa BACE fragment is unknown.

γ-secretase = experiment: βAPP processing (Aβ, C99) in Neuro 2a APPSW cells; assay type: cell-based; settings: 100 uM inhibitor, 3 hrs
Procedure: as §1
C-terminal processing of BACE—In order to further characterize the nature of apparent C-terminal cleaved BACE fragments (FIG. 5C), the analysis of [BACEF]FG fragments immunoprecipitated with antiserum to Flag from HK293 cells were repeated. In addition to the 6 kDa fragment noted in FIG. 5C, fragments of 34, 15, and 11 kDa are apparent (FIG. 7). […] In addition, the intensity of the 11 and 6 kDa bands appear to diminish. It was expected that some of these BACE fragments would be disulfide linked, since it is known that the six Cys residues in the ectodomain form three intramolecular disulfide linkages (Cys^216-Cys^420, Cys^278-Cys^443, Cys^330-Cys^380) (41). The 34, 15, 11 and 6 kDa BACE fragments are also apparent when [BACEF]FG is expressed in Neuro 2a cells (FIG. 8). […]

[1] = tested on: proBACE processing by PC-like enzyme; experiment: proBACE processing in HK293 cells co-expressing [BACEF]FG/V5 and PC-inhibitors (pulse-chase, immunoprecipitation, SDS-PAGE); assay type: cell-based, human; settings: 15 min [35S]Met pulse, chase 1 h or 2h; FG epitope; α1-PDX co-transfected or BFA present
Procedure: FIG. 1: HK293 cells were transiently co-transfected with either ([BACEF]FG/V5+BDNF) [control, CTL] (A,C) or ([BACEF]FG/V5+α1-PDX) (B,D) cDNAs. Two days post-transfections the cells were pulse-labeled in the absence or presence of […] BFA for 15 min with [^35S]Met and then chased for 1 or 2h. Cell lysates were immunoprecipitated with either the FG or V5 mAbs and analysed by SDS-PAGE on 8% tricine gels. The migration position of the 53 kDa molecular mass standard and those of proBACE (pBACE) and BACE are emphasized.
FIG. 2: [A] HK293 cells were transiently co-transfected with cDNAs coding for either ([BACEF]FG/V5+BDNF) [control, CTL], ([BACEF-R45A]FG/V5+BDNF) or ([BACEF-R42A]FG/V5+BDNF) or ([BACEF]FG/V5+either α1-PDX, the prosegments of furin, PC5, PC7, SKI-1, furin-mutated (α2M-F) or wild type (α2M) α2-macroglobulin. The cells were pulse-labeled for 20 min with [^35S]Met and then chased for 90 min. Cell lysates were immunoprecipitated with the FG mAb and analysed by SDS-PAGE on 8% tricine gels. [B] HK293 cells were transiently co-transfected with cDNAs coding for either ([BACEF]FG/V5+BDNF) [CTL], ([BACEF]FG/V5+furin) or ([BACEF]FG/V5+α1-PDX). The cells were then pulse-labeled for 2h with Na2[^35SO4]. Cell lysates were immunoprecipitated with the FG or V5 mAbs and analysed by SDS-PAGE on 8% tricine gels. […]

proBACE = experiment: Exit of proBACE from the ER in HK293 cells (3h [35S]Met pulse); assay type: cell-based, human; settings: 90 μM BFA or 250 nM bafilomycin, 37° C.
Procedure: FIG. 5: HK293 cells were transiently transfected with cDNAs coding for either [A,B] (BDNF+βAPPSW) [CTL] or ([BACEF]FG+βAPPSW), [C] [BACEF]FG or [BACES]FG. The cells were pulse-labeled for 3h with [^35S]Met at either 37° C. in the absence or presence of 90 μM BFA or 250 nM bafilomycin or at 20° C. Cell lysates were immunoprecipitated with either [A] the FG mAb or [B] the 1-16 Aβ antibody, and analysed by SDS-PAGE on 8% tricine gels. [C] FG antibody, and analysed by SDS-PAGE on 8% tricine gels. The arrowhead point to an ˜6 kDa intracellular stub of BACEF.
Transfections and biosynthetic analyses—All transfections were done on 2−4×10^5 HK293 cells using Effectene (Qiagen) and a total of 1-1.5 μg of BACE contruct cDNAs subcloned into the vector pIRES2-EGFP. Two days post-transfection the cells were washed and then pulse-incubated for various times with either 200 μCi/ml of [^35S]Met; 400 μCi/ml Na2[^35SO4], [^3H]Leu, [^3H]Arg, [^3H]Ser; or 1 mCi/ml [^3H]palmitate EN) (20). Pulse-chase experiments with [^35S]Met were carried out as previously described (21). Cells were lysed in immunoprecipitation buffer [150 mM NaCl, 50 mM Tris-HCl pH 6.8, 0.5% NP40, 0.5% sodium deoxycholate and a protease inhibitor cocktail (Roche Diagnostics). The lysates and media were then prepared for immunoprecipitations as reported (22). […]

BACE = biological target: T1, BACE (Mus musculus, UniProt P56818); experiment: In vitro β-secretase activity on a 20 aa synthetic βAPPSW peptide (RP-HPLC); assay type: biochemical
T1 construct: TDEST454; FLAG (DYKDDDDK), inserted just after the signal peptide cleavage site (after Ala19) (N); made in house; host or cells: HK293 cells, transiently transfected; 10-20 fold-concentrated medium

[proBACES]FG/V5 = In vitro PC-mediated processing of proBACES (Western blot); assay type: biochemical, mouse; settings: equivalent hydrolytic activities of PCs, 1-4 hours incubation

T1 sequence (P56818 46-457 limits assumed): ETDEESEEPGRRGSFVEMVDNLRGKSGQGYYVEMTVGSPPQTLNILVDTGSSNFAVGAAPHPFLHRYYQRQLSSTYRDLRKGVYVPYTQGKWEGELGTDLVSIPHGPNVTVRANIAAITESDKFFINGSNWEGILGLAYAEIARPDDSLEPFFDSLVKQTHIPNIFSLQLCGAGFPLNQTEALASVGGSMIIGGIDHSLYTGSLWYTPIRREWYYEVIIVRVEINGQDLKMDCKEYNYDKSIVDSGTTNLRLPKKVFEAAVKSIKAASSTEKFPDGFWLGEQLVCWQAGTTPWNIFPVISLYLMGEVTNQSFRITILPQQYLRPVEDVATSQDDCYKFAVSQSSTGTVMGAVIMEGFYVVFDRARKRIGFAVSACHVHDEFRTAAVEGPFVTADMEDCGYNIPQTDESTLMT

## CCC(C)C(NC(=O)C(NC(=O)OC(C)(C)C)C(C)C)C(=O)NC(C)C(=O)C(F)(F)C(=O)NC(C(=O)NC(C(=O)OC)C(C)CC)C(C)C (stereo not shown) (Boc-VI[X1]VI-OMe; configuration not given here)
BACE secretase/sheddase; Neuro 2a APPSW cells transfected with [BACEF]FG, 100 uM inhibitor, 3 hrs
  levels of BACE fragments (34, 15 and 11 kDa): largely unchanged
BACE secretase/sheddase; Neuro 2a cells
  inhibition of BACE secretase/sheddase activity: does not inhibit
γ-secretase; cell lysates
  cellular C99 levels: elevates
γ-secretase; media
  Aβ formation: completely inhibits

## C[C@H]1CCC/C=C/[C@@H]2C[C@H](O)C[C@H]2[C@H](O)/C=C/C(=O)O1 [BFA, brefeldin A]
[1]
  72 kDa proBACE form: not apparent
proBACE
  escape of 66 kDa proBACE from the ER: prevented

## CNC(=O)[C@H](Cc1c[nH]c2ccccc12)NC(=O)[C@@H](CC(=O)NO)CC(C)C [GM6001]
BACE secretase/sheddase; Neuro 2a cells
  inhibition of BACE secretase/sheddase activity: did not inhibit

## CC(C)C[C@H](CC(=O)NO)C(=O)N[C@@H](Cc1ccc2ccccc2c1)C(=O)N[C@@H](C)C(=O)NCCN [TAPI-1]
BACE secretase/sheddase; Neuro 2a cells
  inhibition of BACE secretase/sheddase activity: did not inhibit

## COC(=O)C[C@H](NC(=O)[C@H](C)NC(=O)[C@@H](NC(=O)OCc1ccccc1)C(C)C)C(=O)CF [Z-Val-Ala-Asp(OMe)-CH2F] (Cbz-Val-Ala-Asp(OMe)-CH2F)
BACE secretase/sheddase; Neuro 2a cells, 100 uM
  effect on BACE secretase/sheddase activity: had no effect

## CO/C1=C\C(C)=C\[C@@H](C)[C@@H](O)[C@@H](C)C/C(C)=C/C=C/[C@H](OC)[C@@H]([C@@H](C)[C@@H](O)[C@H](C)[C@@]2(O)C[C@@H](O)[C@H](C)[C@@H](C(C)C)O2)OC1=O [bafilomycin]
proBACE
  escape of 66 kDa proBACE from the ER: retarding effect

## THLGIRLPLRSGLAGPPLGLRLPR [proBACE 22-45]
BACE; 20 μM peptide pre-incubated with active BACE, substrate at 10 μM
  inhibition of the Swedish peptide substrate cleavage: 20%

## furin
BACE; pre-incubation of BACES-containing media with furin, four separate experiments
  increase in the level of BACE activity: 50±3%
[proBACES]FG/V5
  time to completely process proBACE into BACE: ≤ 2 h
